Measured values as given in PubChem BioAssay AID192 (DTP/NCI, 2004).
Where “and” joins values, the source holds several entries; their conditions need not be identical. Equal values may be shown once. Inconclusive results and toxic doses are left out.

System: BDF1 mice, B16 melanoma ip, median survival T/C
Experiment: NCI In Vivo Anticancer Drug Screen. Data for tumor model B16 Melanoma (intraperitoneal) in B6D2F1 (BDF1) mice
Settings: endpoint: median survival time, higher = longer survival
How it was run: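 Each result divides a survival or tumor-size measurement in the compound-treated group by the same measurement in the vehicle group.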

[1] = dose: 25.0 mg/kg/injection, schedule: Q01DX009 (ip), vehicle: saline with Tween-80
[2] = dose: 50.0 mg/kg/injection, schedule: Q01DX009 (ip), vehicle: saline with Tween-80
[3] = dose: 100.0 mg/kg/injection, schedule: Q01DX009 (ip), vehicle: saline with Tween-80
[4] = dose: 200.0 mg/kg/injection, schedule: Q01DX009 (ip), vehicle: saline with Tween-80
[5] = dose: 100.0 mg/kg/injection, schedule: Q01DX009 (ip), vehicle: Klucel (hydroxypropylcellulose) (HPC)
[6] = dose: 200.0 mg/kg/injection, schedule: Q01DX009 (ip), vehicle: Klucel (hydroxypropylcellulose) (HPC)
[7] = dose: 100.0 mg/kg/injection, schedule: Q04DX003 (ip), vehicle: saline with Tween-80
[8] = dose: 50.0 mg/kg/injection, schedule: Q01DX009 (ip), vehicle: Klucel (hydroxypropylcellulose) (HPC)

Compound: CCN(CC)c1nc(N(CC)CC)nc(N(CC)CC)n1
- T/C [1]: 89 % of control
- T/C [2]: 94 % of control

Compound: CC(=O)/C=C(\C)OC1CCCCC1
- T/C [2]: 113 % of control
- T/C [3]: 104 % of control
- T/C [4]: 92 % of control

Compound: CN(C)c1ccc(/C=C2\C=Cc3ccccc32)cc1
- T/C [2]: 92 % of control
- T/C [3]: 89 % of control
- T/C [4]: 92 % of control

Compound: OCC1OC(n2cnc3c(=S)nc[nH]c32)C(O)C1O (stereo unspecified)
- T/C (dose: 12.5 mg/kg/injection, schedule: Q01DX009 (ip), vehicle: saline sonified): 102 % of control
- T/C (dose: 25.0 mg/kg/injection, schedule: Q01DX009 (ip), vehicle: saline sonified): 105 % of control
- T/C (dose: 50.0 mg/kg/injection, schedule: Q01DX009 (ip), vehicle: saline sonified): 105 % of control
- T/C [2]: 104 % of control
- T/C (dose: 100.0 mg/kg/injection, schedule: Q01DX009 (ip), vehicle: saline sonified): 95 % of control and 100 % of control
- T/C [3]: 104 % of control
- T/C (dose: 200.0 mg/kg/injection, schedule: Q01DX009 (ip), vehicle: saline sonified): 102 % of control
- T/C [4]: 100 % of control

Compound: CCOC(=O)/C=C(\C)Nc1ccc(F)cc1
- T/C [5]: 88 % of control
- T/C [6]: 97 % of control
- T/C (dose: 400.0 mg/kg/injection, schedule: Q01DX009 (ip), vehicle: Klucel (hydroxypropylcellulose) (HPC)): 91 % of control

Compound: C[C@@H]1CC2=CC(=O)CC[C@@H]2[C@H]2CC[C@@]3(C)[C@@H](CC[C@]3(C)O)[C@@H]21
- T/C [1]: 102 % of control
- T/C [2]: 92 % of control and 113 % of control
- T/C [3]: 97 % of control and 108 % of control

Compound: O=C(OC1CC2CC=CC21)c1ccc([N+](=O)[O-])cc1 (stereo unspecified)
- T/C [7]: 100 % of control
- T/C (dose: 200.0 mg/kg/injection, schedule: Q04DX003 (ip), vehicle: saline with Tween-80): 94 % of control
- T/C (dose: 400.0 mg/kg/injection, schedule: Q04DX003 (ip), vehicle: saline with Tween-80): 94 % of control

Compound: CC(=O)O[C@@H]1[C@@H](O)[C@H]2O[C@@H]3C=C(C)CC[C@]3(CO)[C@]1(C)[C@@]21CO1
- T/C (dose: 1.25 mg/kg/injection, schedule: Q01DX009 (ip), vehicle: saline with Tween-80): 111 % of control
- T/C (dose: 2.5 mg/kg/injection, schedule: Q01DX009 (ip), vehicle: saline with Tween-80): 103 % of control
- T/C (dose: 5.0 mg/kg/injection, schedule: Q01DX009 (ip), vehicle: saline with Tween-80): 116 % of control
- T/C (dose: 10.0 mg/kg/injection, schedule: Q01DX009 (ip), vehicle: saline with Tween-80): 100 % of control

Compound: CO[C@H](C(=O)[C@@H](O)[C@@H](C)O)[C@@H]1Cc2cc3cc(OC4CC(OC5CC(O)C(O)C(C)O5)C(O)C(C)O4)c(C)c(O)c3c(O)c2C(=O)[C@H]1OC1CC(OC2CC(OC3CC(C)(O)C(O)C(C)O3)C(O)C(C)O2)C(O)C(C)O1 (stereo partly specified)
- T/C (dose: 0.02 mg/kg/injection, schedule: Q01DX009 (ip), vehicle: water): 103 % of control
- T/C (dose: 0.05 mg/kg/injection, schedule: Q01DX009 (ip), vehicle: water): 106 % of control
- T/C (dose: 0.06 mg/kg/injection, schedule: Q01DX009 (ip), vehicle: saline): 101 % of control
- T/C (dose: 0.1 mg/kg/injection, schedule: Q01DX009 (ip), vehicle: water): 100 % of control and 103 % of control
- T/C (dose: 0.12 mg/kg/injection, schedule: Q01DX009 (ip), vehicle: saline): 101 % of control
- T/C (dose: 0.12 mg/kg/injection, schedule: Q01DX009 (ip), vehicle: water): 96 % of control
- T/C (dose: 0.13 mg/kg/injection, schedule: Q01DX009 (ip), vehicle: clinical formulation): 100 % of control
- T/C (dose: 0.13 mg/kg/injection, schedule: Q01DX009 (ip), vehicle: saline): 100 % of control and 109 % of control
- T/C (dose: 0.13 mg/kg/injection, schedule: Q01DX009 (ip), vehicle: water): 94 % of control
- T/C (dose: 0.2 mg/kg/injection, schedule: Q01DX009 (ip), vehicle: water): 111 % of control
- T/C (dose: 0.25 mg/kg/injection, schedule: Q01DX009 (ip), vehicle: clinical formulation): 102 % of control
- T/C (dose: 0.25 mg/kg/injection, schedule: Q01DX009 (ip), vehicle: saline): 100 % of control and 104 % of control and 111 % of control
- T/C (dose: 0.25 mg/kg/injection, schedule: Q01DX009 (ip), vehicle: water): 98 % of control
- T/C (dose: 0.4 mg/kg/injection, schedule: Q01DX009 (ip), vehicle: water): 111 % of control
- T/C (dose: 0.5 mg/kg/injection, schedule: Q01DX009 (ip), vehicle: clinical formulation): 100 % of control
- T/C (dose: 0.5 mg/kg/injection, schedule: Q01DX009 (ip), vehicle: saline): 97 % of control and 105 % of control and 121 % of control
- T/C (dose: 0.5 mg/kg/injection, schedule: Q01DX009 (ip), vehicle: water): 98 % of control
- T/C (dose: 0.6 mg/kg/injection, schedule: Q01DX009 (ip), vehicle: water): 102 % of control
- T/C (dose: 0.75 mg/kg/injection, schedule: Q01DX009 (ip), vehicle: saline): 104 % of control
- T/C (dose: 1.0 mg/kg/injection, schedule: Q01DX009 (ip), vehicle: clinical formulation): 105 % of control
- T/C (dose: 1.0 mg/kg/injection, schedule: Q01DX009 (ip), vehicle: saline): 97 % of control and 106 % of control and 109 % of control
- T/C (dose: 62.0 micrograms/kg/injection, schedule: Q01DX009 (ip), vehicle: saline): 98 % of control
- T/C (dose: 125.0 micrograms/kg/injection, schedule: Q01DX009 (ip), vehicle: saline): 105 % of control
- T/C (dose: 125.0 micrograms/kg/injection, schedule: Q01DX009 (ip), vehicle: water): 94 % of control
- T/C (dose: 250.0 micrograms/kg/injection, schedule: Q01DX009 (ip), vehicle: saline): 119 % of control
- T/C (dose: 500.0 micrograms/kg/injection, schedule: Q01DX009 (ip), vehicle: saline): 111 % of control
- T/C (dose: 500.0 micrograms/kg/injection, schedule: Q01DX009 (ip), vehicle: water): 110 % of control
- T/C (dose: 1000.0 micrograms/kg/injection, schedule: Q01DX009 (ip), vehicle: saline): 115 % of control
- T/C (dose: 1000.0 micrograms/kg/injection, schedule: Q01DX009 (ip), vehicle: water): 109 % of control

Compound: O=C(CN1C(=O)c2ccccc2C1=O)OC(c1ccccc1)c1ccccc1
- T/C [8]: 90 % of control
- T/C [5]: 90 % of control

Compound: C1=CC2C=CC12 (stereo unspecified)
- T/C (dose: 50.0 mg/kg/injection, schedule: Q04DX003 (ip), vehicle: saline with Tween-80): 91 % of control
- T/C [7]: 89 % of control

Compound: O=c1[nH]cnc2ccc(Cl)cc12
- T/C (dose: 37.5 mg/kg/injection, schedule: Q01DX009 (ip), vehicle: saline with Tween-80): 102 % of control
- T/C (dose: 75.0 mg/kg/injection, schedule: Q01DX009 (ip), vehicle: saline with Tween-80): 102 % of control

Compound: C=C(C)C12CC(C)C34OC(CCCCCCCCCCC)(OC1C3C1OC1(CO)C(O)C1(O)C(=O)C(C)=CC14C)O2 (stereo unspecified)
- T/C (dose: 0.05 mg/kg/injection, schedule: Q01DX009 (ip), vehicle: distilled water + Tween-80): 103 % of control
- T/C (dose: 0.1 mg/kg/injection, schedule: Q01DX009 (ip), vehicle: distilled water + Tween-80): 102 % of control
- T/C (dose: 0.2 mg/kg/injection, schedule: Q01DX009 (ip), vehicle: distilled water + Tween-80): 91 % of control
- T/C (dose: 0.4 mg/kg/injection, schedule: Q01DX009 (ip), vehicle: distilled water + Tween-80): 90 % of control

Compound: COc1cccc2c1C(=O)c1c(O)c3c(c(O)c1C2=O)C[C@@](O)(C(C)=O)C[C@@H]3OC1CC(NC(C)=O)C(O)C(C)O1 (stereo partly specified)
- T/C (dose: 6.25 mg/kg/injection, schedule: Q01DX009 (ip), vehicle: saline): 169 % of control
- T/C (dose: 12.5 mg/kg/injection, schedule: Q01DX009 (ip), vehicle: saline): 198 % of control
- T/C (dose: 25.0 mg/kg/injection, schedule: Q01DX009 (ip), vehicle: saline): 308 % of control
- T/C (dose: 50.0 mg/kg/injection, schedule: Q01DX009 (ip), vehicle: saline): 227 % of control

Compound: CCCCCCC(=O)CCCCCCCCCCCCC(=O)OC
- T/C (dose: 1.56 mg/kg/injection, schedule: Q01DX009 (ip), vehicle: saline with Tween-80): 98 % of control
- T/C (dose: 3.13 mg/kg/injection, schedule: Q01DX009 (ip), vehicle: saline with Tween-80): 105 % of control
- T/C (dose: 6.25 mg/kg/injection, schedule: Q01DX009 (ip), vehicle: saline with Tween-80): 97 % of control

Compound: CC(CCC(=O)O)(c1cc(Cl)c(O)c(Cl)c1)c1cc(Cl)c(O)c(Cl)c1
- T/C (dose: 25.0 mg/kg/injection, schedule: Q01DX009 (ip), vehicle: gum acacia): 98 % of control
- T/C (dose: 50.0 mg/kg/injection, schedule: Q01DX009 (ip), vehicle: gum acacia): 115 % of control
- T/C (dose: 100.0 mg/kg/injection, schedule: Q01DX009 (ip), vehicle: gum acacia): 122 % of control

Compound: O=c1oc(-c2ccco2)nc2ccccc12
- T/C [8]: 112 % of control
- T/C [5]: 106 % of control
- T/C [6]: 112 % of control
